According to PubChem BioAssay AID248 (DTP/NCI, 2004):
Several values for one entry are separate records, joined by “and”; a condition that tells them apart may be missing. Identical values can stand only once. Inconclusive results and toxic doses are left out.

Tested on: L1210 leukemia ip in BDF1 mice, survival T/C
Test: NCI In Vivo Anticancer Drug Screen. Data for tumor model L1210 Leukemia (intraperitoneal) in B6D2F1 (BDF1) mice
Conditions: endpoint: mean survival time, higher = longer survival
How it was run: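 Value reflects the ratio of survival in compound-treated mice to survival in vehicle-treated controls, with both groups carrying the same transplanted tumor.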

[1] = dose: 100.0 mg/kg/injection, schedule: Q04DX003 (ip), vehicle: saline with Tween-80

**Q.** With O=C(Nc1ccc(C2=NCCN2)cc1)c1ccc(C(=O)Nc2ccc(C3=NCCN3)cc2)c(NC(=O)c2ccc(C(=O)Nc3cc(C(=O)Nc4ccc(C5=NCCN5)cc4)ccc3C(=O)Nc3ccc(C4=NCCN4)cc3)cc2)c1 as the molecule, how does the T/C (dose: 2.5 mg/kg/injection, schedule: Q01DX Z (ip), vehicle: methylcellulose (MC)) read?
**A.** 120 % of control

**Q.** And the T/C (dose: 3.1 mg/kg/injection, schedule: Q01DX Z (ip), vehicle: carboxymethylcellulose (CMC))?
**A.** 104 % of control

**Q.** And the T/C (dose: 6.2 mg/kg/injection, schedule: Q01DX Z (ip), vehicle: carboxymethylcellulose (CMC))?
**A.** 107 % of control

**Q.** What about the T/C (dose: 6.25 mg/kg/injection, schedule: Q#A X Z (ip), vehicle: carboxymethylcellulose (CMC)) of the same molecule?
**A.** 108 % of control

**Q.** What about the T/C (dose: 10.0 mg/kg/injection, schedule: Q01DX Z (ip), vehicle: methylcellulose (MC)) of the same molecule?
**A.** 157 % of control

**Q.** And the T/C (dose: 12.5 mg/kg/injection, schedule: Q01DX Z (ip), vehicle: carboxymethylcellulose (CMC))?
**A.** 119 % of control

**Q.** What about the T/C (dose: 12.5 mg/kg/injection, schedule: Q01DX Z (sc), vehicle: carboxymethylcellulose (CMC)) of the same molecule?
**A.** 98 % of control

**Q.** And the T/C (dose: 12.5 mg/kg/injection, schedule: Q#A X Z (ip), vehicle: carboxymethylcellulose (CMC))?
**A.** 192 % of control

**Q.** What about the T/C (dose: 22.0 mg/kg/injection, schedule: Q01DX015 (ip), vehicle: carboxymethylcellulose (CMC)) of the same molecule?
**A.** 116 % of control

**Q.** And the T/C (dose: 25.0 mg/kg/injection, schedule: Q01DX004 (im), vehicle: olive oil, sesame oil, peanut oil)?
**A.** 97 % of control

**Q.** What about the T/C (dose: 25.0 mg/kg/injection, schedule: Q01DX Z (ip), vehicle: carboxymethylcellulose (CMC)) of the same molecule?
**A.** 175 % of control

**Q.** What about the T/C (dose: 25.0 mg/kg/injection, schedule: Q01DX Z (sc), vehicle: carboxymethylcellulose (CMC)) of the same molecule?
**A.** 122 % of control

**Q.** What about the T/C (dose: 25.0 mg/kg/injection, schedule: Q#A X Z (ip), vehicle: carboxymethylcellulose (CMC)) of the same molecule?
**A.** 289 % of control

**Q.** What about the T/C (dose: 33.0 mg/kg/injection, schedule: Q01DX015 (ip), vehicle: carboxymethylcellulose (CMC)) of the same molecule?
**A.** 106 % of control

**Q.** And the T/C (dose: 50.0 mg/kg/injection, schedule: Q01DX004 (im), vehicle: olive oil, sesame oil, peanut oil)?
**A.** 95 % of control

**Q.** And the T/C (dose: 50.0 mg/kg/injection, schedule: Q01DX015 (ip), vehicle: carboxymethylcellulose (CMC))?
**A.** 110 % of control

**Q.** And the T/C (dose: 50.0 mg/kg/injection, schedule: Q01DX Z (ip), vehicle: carboxymethylcellulose (CMC))?
**A.** 302 % of control

**Q.** What about the T/C (dose: 50.0 mg/kg/injection, schedule: Q01DX Z (oral), vehicle: carboxymethylcellulose (CMC)) of the same molecule?
**A.** 95 % of control

**Q.** What about the T/C (dose: 50.0 mg/kg/injection, schedule: Q01DX Z (sc), vehicle: carboxymethylcellulose (CMC)) of the same molecule?
**A.** 201 % of control

**Q.** And the T/C (dose: 50.0 mg/kg/injection, schedule: Q#A X Z (ip), vehicle: carboxymethylcellulose (CMC))?
**A.** 194 % of control

**Q.** What about the T/C (dose: 60.0 mg/kg/injection, schedule: Q01DX Z (ip), vehicle: methylcellulose (MC)) of the same molecule?
**A.** 158 % of control and 359 % of control

**Q.** What about the T/C (dose: 62.5 mg/kg/injection, schedule: Q## X010 (oral), vehicle: saline) of the same molecule?
**A.** 98 % of control

**Q.** What about the T/C (dose: 75.0 mg/kg/injection, schedule: Q03DX Z (ip), vehicle: carboxymethylcellulose (CMC)) of the same molecule?
**A.** 206 % of control

**Q.** And the T/C (dose: 100.0 mg/kg/injection, schedule: Q01DX004 (im), vehicle: olive oil, sesame oil, peanut oil)?
**A.** 95 % of control

**Q.** And the T/C (dose: 100.0 mg/kg/injection, schedule: Q01DX Z (ip), vehicle: carboxymethylcellulose (CMC))?
**A.** 195 % of control

**Q.** What about the T/C (dose: 100.0 mg/kg/injection, schedule: Q01DX Z (oral), vehicle: carboxymethylcellulose (CMC)) of the same molecule?
**A.** 93 % of control

**Q.** And the T/C (dose: 100.0 mg/kg/injection, schedule: Q01DX Z (sc), vehicle: carboxymethylcellulose (CMC))?
**A.** 208 % of control

**Q.** And the T/C (dose: 112.5 mg/kg/injection, schedule: Q01DX015 (ip), vehicle: carboxymethylcellulose (CMC))?
**A.** 169 % of control

**Q.** What about the T/C (dose: 120.0 mg/kg/injection, schedule: Q01DX Z (ip), vehicle: methylcellulose (MC)) of the same molecule?
**A.** 314 % of control

**Q.** What about the T/C (dose: 150.0 mg/kg/injection, schedule: Q03DX Z (ip), vehicle: carboxymethylcellulose (CMC)) of the same molecule?
**A.** 284 % of control

**Q.** And the T/C (dose: 175.0 mg/kg/injection, schedule: Q07DX Z (ip), vehicle: carboxymethylcellulose (CMC))?
**A.** 293 % of control

**Q.** And the T/C (dose: 192.0 mg/kg/injection, schedule: Q01DX001 (ip), vehicle: carboxymethylcellulose (CMC))?
**A.** 97 % of control

**Q.** And the T/C (dose: 192.0 mg/kg/injection, schedule: Q01DX001 (ip), vehicle: other)?
**A.** 100 % of control

**Q.** And the T/C (dose: 200.0 mg/kg/injection, schedule: Q01DX004 (im), vehicle: olive oil, sesame oil, peanut oil)?
**A.** 98 % of control

**Q.** What about the T/C (dose: 200.0 mg/kg/injection, schedule: Q01DX Z (oral), vehicle: carboxymethylcellulose (CMC)) of the same molecule?
**A.** 97 % of control

**Q.** What about the T/C (dose: 200.0 mg/kg/injection, schedule: Q01DX Z (sc), vehicle: carboxymethylcellulose (CMC)) of the same molecule?
**A.** 227 % of control

**Q.** And the T/C (dose: 240.0 mg/kg/injection, schedule: Q01DX Z (ip), vehicle: methylcellulose (MC))?
**A.** 210 % of control

**Q.** And the T/C (dose: 250.0 mg/kg/injection, schedule: Q## X010 (oral), vehicle: saline)?
**A.** 101 % of control

**Q.** And the T/C (dose: 281.0 mg/kg/injection, schedule: Q01DX001 (ip), vehicle: carboxymethylcellulose (CMC))?
**A.** 97 % of control

**Q.** What about the T/C (dose: 281.0 mg/kg/injection, schedule: Q01DX001 (ip), vehicle: other) of the same molecule?
**A.** 103 % of control

**Q.** And the T/C (dose: 300.0 mg/kg/injection, schedule: Q03DX Z (ip), vehicle: carboxymethylcellulose (CMC))?
**A.** 190 % of control

**Q.** And the T/C (dose: 350.0 mg/kg/injection, schedule: Q07DX Z (ip), vehicle: carboxymethylcellulose (CMC))?
**A.** 278 % of control

**Q.** And the T/C (dose: 400.0 mg/kg/injection, schedule: Q01DX Z (oral), vehicle: carboxymethylcellulose (CMC))?
**A.** 104 % of control

**Q.** And the T/C (dose: 422.0 mg/kg/injection, schedule: Q01DX001 (ip), vehicle: carboxymethylcellulose (CMC))?
**A.** 95 % of control

**Q.** What about the T/C (dose: 422.0 mg/kg/injection, schedule: Q01DX001 (ip), vehicle: other) of the same molecule?
**A.** 106 % of control

**Q.** And the T/C (dose: 500.0 mg/kg/injection, schedule: Q## X010 (oral), vehicle: saline)?
**A.** 104 % of control

**Q.** And the T/C (dose: 640.0 mg/kg/injection, schedule: Q01DX001 (ip), vehicle: carboxymethylcellulose (CMC))?
**A.** 104 % of control

**Q.** What about the T/C (dose: 640.0 mg/kg/injection, schedule: Q01DX001 (ip), vehicle: other) of the same molecule?
**A.** 104 % of control

**Q.** What about the T/C (dose: 700.0 mg/kg/injection, schedule: Q07DX Z (ip), vehicle: carboxymethylcellulose (CMC)) of the same molecule?
**A.** 185 % of control

**Q.** What about the T/C (dose: 800.0 mg/kg/injection, schedule: Q01DX Z (oral), vehicle: carboxymethylcellulose (CMC)) of the same molecule?
**A.** 89 % of control

**Q.** And the T/C (dose: 960.0 mg/kg/injection, schedule: Q01DX001 (ip), vehicle: carboxymethylcellulose (CMC))?
**A.** 106 % of control and 120 % of control

**Q.** What about the T/C (dose: 1440.0 mg/kg/injection, schedule: Q01DX001 (ip), vehicle: carboxymethylcellulose (CMC)) of the same molecule?
**A.** 116 % of control

**Q.** What about the T/C (dose: 1440.0 mg/kg/injection, schedule: Q01DX001 (ip), vehicle: other) of the same molecule?
**A.** 120 % of control

**Q.** What about the T/C (dose: 2160.0 mg/kg/injection, schedule: Q01DX001 (ip), vehicle: carboxymethylcellulose (CMC)) of the same molecule?
**A.** 121 % of control

**Q.** And the T/C (dose: 3240.0 mg/kg/injection, schedule: Q01DX001 (ip), vehicle: carboxymethylcellulose (CMC))?
**A.** 123 % of control

**Q.** What about the T/C (dose: 3240.0 mg/kg/injection, schedule: Q01DX001 (ip), vehicle: other) of the same molecule?
**A.** 191 % of control

**Q.** What does the source list for COc1ccc(NC(=O)NCc2ccccc2Cl)c(OC)c1?
**A.** T/C (dose: 100.0 mg/kg/injection, schedule: Q01DX009 (ip), vehicle: Klucel (hydroxypropylcellulose) (HPC)): 102 % of control; T/C (dose: 200.0 mg/kg/injection, schedule: Q01DX009 (ip), vehicle: Klucel (hydroxypropylcellulose) (HPC)): 96 % of control; T/C (dose: 400.0 mg/kg/injection, schedule: Q01DX009 (ip), vehicle: Klucel (hydroxypropylcellulose) (HPC)): 98 % of control

**Q.** With N#CCCC(CCC#N)(S(=O)(=O)Cc1ccccc1)S(=O)(=O)Cc1ccccc1 as the molecule, how does the T/C (dose: 100.0 mg/kg/injection, schedule: Q01DX001 (ip), vehicle: carboxymethylcellulose (CMC)) read?
**A.** 101 % of control

**Q.** What about the T/C (dose: 200.0 mg/kg/injection, schedule: Q01DX001 (ip), vehicle: carboxymethylcellulose (CMC)) of the same molecule?
**A.** 101 % of control

**Q.** What about the T/C (dose: 400.0 mg/kg/injection, schedule: Q01DX001 (ip), vehicle: carboxymethylcellulose (CMC)) of the same molecule?
**A.** 89 % of control

**Q.** Cc1ccc(C(C)NC2=NCCO2)c(C)c1 (centres undefined) was tested. Which T/C [1] did it give?
**A.** 105 % of control

**Q.** CC(=O)/C(=C\N(C)C)C(=O)Nc1ccccn1 was tested. Which T/C (dose: 100.0 mg/kg/injection, schedule: Q01DX001 (ip), vehicle: saline with Tween-80) did it give?
**A.** 98 % of control

**Q.** What about the T/C (dose: 200.0 mg/kg/injection, schedule: Q01DX001 (ip), vehicle: saline with Tween-80) of the same molecule?
**A.** 101 % of control

**Q.** And the T/C (dose: 400.0 mg/kg/injection, schedule: Q01DX001 (ip), vehicle: saline with Tween-80)?
**A.** 93 % of control

**Q.** With O=C1CCCCC12CCCC2 as the molecule, how does the T/C (dose: 100.0 mg/kg/injection, schedule: Q01DX009 (ip), vehicle: saline sonified) read?
**A.** 97 % of control

**Q.** What about the T/C (dose: 200.0 mg/kg/injection, schedule: Q01DX009 (ip), vehicle: saline sonified) of the same molecule?
**A.** 103 % of control

**Q.** What about the T/C (dose: 400.0 mg/kg/injection, schedule: Q01DX009 (ip), vehicle: saline sonified) of the same molecule?
**A.** 93 % of control

**Q.** CC(C)CCCC(C)CCC1C(=O)NC(=O)NC1=O (centres undefined) was tested. Which T/C (dose: 75.0 mg/kg/injection, schedule: Q01DX001 (ip), vehicle: saline) did it give?
**A.** 90 % of control

**Q.** And the T/C (dose: 150.0 mg/kg/injection, schedule: Q01DX001 (ip), vehicle: saline)?
**A.** 88 % of control

**Q.** Which results are given for CSCCCNC(=O)NS(=O)(=O)c1ccc(C)cc1?
**A.** T/C [1]: 97 % of control; T/C (dose: 200.0 mg/kg/injection, schedule: Q04DX003 (ip), vehicle: saline with Tween-80): 100 % of control; T/C (dose: 400.0 mg/kg/injection, schedule: Q04DX003 (ip), vehicle: saline with Tween-80): 97 % of control
